Laboratory results taken from patent US20160340324A1, “METHODS AND COMPOSITIONS FOR TREATING CANCER” (Sanford-Burnham Medical Research Institute, priority 2013, published 2016).

How the values were obtained:
[1] = target: T1, RXRα-LBD (Homo sapiens, UniProt P19793); test: Mammalian one hybrid: Gal4-RXRα-LBD chimera (pBind-RXRα-LBD) and pG5luc reporter in HCT-116 cells; assay type: cell-based; conditions: 9-cis-RA 10^-7 M, BI-1003 1 μM, K-8008 and K-8012 50 μM
T1 construct: expressed in transfected cells; host or cells: HCT-116
T1 sequence (P19793 227-458 limits assumed): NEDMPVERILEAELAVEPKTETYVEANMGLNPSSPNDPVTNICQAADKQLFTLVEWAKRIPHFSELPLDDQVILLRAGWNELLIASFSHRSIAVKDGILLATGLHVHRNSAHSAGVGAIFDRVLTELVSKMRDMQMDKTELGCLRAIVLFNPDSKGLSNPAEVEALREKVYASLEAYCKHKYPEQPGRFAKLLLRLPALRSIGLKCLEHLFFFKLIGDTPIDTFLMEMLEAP
Method: FIGS. 2A and 2B are graphs of relative CAT activity. (TREpal)2-tk-CAT and RXRα were transiently transfected into CV-1 cells. […] CAT activity was determined. […] Error bars represent SEM. FIG. 2C is a graph of relative LUC activity. pBind-RXRα-LBD and pG5luc were transiently transfected into HCT-116 cells. […] Luciferase activity was determined. […] HCT-116 cells seeded in 24-well plates were transiently transfected with 50 ng pG5luc, 25 ng pBind-RXRα-LBD. […] Cells were washed, lysed and assayed by using the Dual-Luciferase Reporter Assay System (Promega). Transfection efficiency was normalized to Renilla luciferase activity.

[2] = target: T2, RXRα (Homo sapiens, UniProt P19793); test: CAT reporter assay with (TREpal)2-tk-CAT and RXRα transfected into CV-1 cells; assay type: cell-based; conditions: 9-cis-RA 10^-7 M, BI-1003 1 μM
T2 construct: expressed in transfected cells; host or cells: CV-1 African green monkey kidney cells
T2 sequence (P19793 1-462): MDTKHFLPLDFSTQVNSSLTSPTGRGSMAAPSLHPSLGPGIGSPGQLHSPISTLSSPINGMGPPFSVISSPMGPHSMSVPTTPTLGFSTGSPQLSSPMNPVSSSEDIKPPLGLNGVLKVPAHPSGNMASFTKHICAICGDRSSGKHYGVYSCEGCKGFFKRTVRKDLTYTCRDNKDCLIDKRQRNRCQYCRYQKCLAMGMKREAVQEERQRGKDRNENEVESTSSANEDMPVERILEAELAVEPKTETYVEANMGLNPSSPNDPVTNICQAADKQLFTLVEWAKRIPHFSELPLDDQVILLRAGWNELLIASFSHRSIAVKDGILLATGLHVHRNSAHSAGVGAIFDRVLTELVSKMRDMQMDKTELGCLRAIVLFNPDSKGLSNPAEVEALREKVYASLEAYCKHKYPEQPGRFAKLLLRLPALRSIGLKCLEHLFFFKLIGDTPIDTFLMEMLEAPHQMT
Method: FIGS. 2A and 2B are graphs of relative CAT activity. (TREpal)2-tk-CAT and RXRα were transiently transfected into CV-1 cells. […] CAT activity was determined. […] Error bars represent SEM. FIG. 2C is a graph of relative LUC activity. pBind-RXRα-LBD and pG5luc were transiently transfected into HCT-116 cells. […] Luciferase activity was determined.

[3] = test system: TNFα-induced AKT activation in A549 lung cancer cells; test: Inhibition of TNFα-induced AKT activation, immunoblotting; assay type: cell-based, human; conditions: pretreated 1 h, TNFα 10 ng/mL 30 min
Method: (§1) Cell viability was measured by the MTT colorimetric assay. FIG. 3B depicts inhibition of TNFα-induced AKT activation. […] Phosphorylated AKT and total AKT were analyzed by immunoblotting.
ZR-75-1 and MB231 breast cancer cells (FIG. 8). A unique property of Sulindac and other compounds are their ability to inhibit TNFα-induced AKT activation (Zhou et al, 2010). […] Similar results were obtained in other cancer cell lines (FIG. 9).
Cells were lysed and equal amounts of the lysates were electrophoresed on 10% SDS-PAGE gels and transferred onto PVDF membranes (Millipore). The membranes were blocked with 5% skimmed milk in TBST [50 mM Tris-HCl (pH7.4), 150 mM NaCl and 0.1% Tween20] for 1 h, then incubated with primary antibodies and secondary antibodies and detected using ECL system (Thermo). The dilutions of the primary antibodies were anti-RXRα (AN 197, Santa Cruz) in 1:1000, anti-PARP(H-250. Santa Cruz) in 1:3000, anti-p85α (Millipore) in 1:1000, anti-p-AKT (D9E, Cell Signaling Technology) in 1:1000, anti-AKT 1/2/3 (H-136, Santa Cruz) in 1:1000, anti-β-actin (Sigma) in 1:5000, anti-c-myc (9E10, Santa Cruz), anti-Flag (FI 804, Sigma).

[4] = test system: A549 lung cancer, PC3 prostate cancer, ZR-75-1 and MB231 breast cancer cells; test: MTT cell viability / growth inhibition assay; assay type: cell-based, human; conditions: 48 h
Method: as §1
FIGS. 8A-C are a series of graphs depicting that sulindac and other compounds induce apoptosis of cancer cells. FIG. 8A is a PC3 prostate cancer cell line. FIG. 8B is a ZR-75-1 breast cancer cell line, and FIG. 8C is a MDA-MB-231 breast cancer cell line. Each were treated with the indicated concentration of Sulindac or other compounds for 48 h. Cell viability was determined by the MTT assay.
Confluent cells cultured in 96-well dishes were treated with various concentrations of compounds for 48 h. The cells were then incubated with 2 mg/mL (3-(4,5-Dimethylthiazol-2-yl)-2,5-diphenyltetrazolium bromide (MTT) for 4 h at 37° C. MTT solution was then aspirated and formazan in cells was instantly dissolved by addition of 150 μL DMSO each well. Absorbance was measured at 570 nm.

[5] = test system: HepG2 tumor xenografts; test: HepG2 tumor xenografts in nude mice; assay type: in vivo; conditions: for apparent toxic effects such as loss of body weight: 20 mg/kg daily for 12 days, body weight every 3 days; for reduction of tumor weight: 20 mg/kg intraperitoneally once a day, 12-day treatment
Method: FIGS. 4A-4F depict inhibition of HepG2 tumor growth in animals. FIG. 4A is a photograph of tumors. FIG. 4B is a graph of tumor volume. FIG. 4C is a graph of tumor weight. […] Tumors were removed and measured. Tumor sizes and weights in control, K-80003 and K-8008-treated mice were compared. FIG. 4D is a Western blot. Lysates prepared from three tumors treated with vehicle or K-8008 were analyzed by Western blotting assay for p-AKT expression. FIG. 4E is a series of photomicrographs. H&E staining and TUNEL assay. Tumor sections were stained for H&E or TUNEL by immunohistochemistry. […]. FIG. 4F is a graph of body weight. […]. Body weight was measured every three days. Each point represents the mean±standard deviation of six mice. The differences between the compound treated group and control group are not significant (P>5%).
[…]. Nude mice (BALB/c, SPF grade. 16-18 g, 4-5-week old) were housed at 28° C. in a laminar flow under sterilized conditions. Mice were injected subcutaneously with 100 μL HepG2 cells ([…]). […]. Body weight and tumor size were measured every 3 days. Mice were sacrificed after 12-day drug treatment and the tumors removed for various assessments.
Paraffin wax embedded tumors were cut into 5 |iM-thick sections. These sections were deparaffinized and stained with hematoxylin and eosin (H&E) according to the standard protocol. Tumor sections of HepG2 xenografts were also stained with TUNEL for assessing spontaneous apoptosis according to the manufacturer's instructions (In situ Cell Death Detection Kit; Roche). The images were taken under a fluorescent microscope (Carl Zeiss).

[6] = test system: A549 cells; test: PARP cleavage (apoptosis) with or without TNFα, immunoblotting; assay type: cell-based, human; conditions: 4 h; for PARP cleavage, combination with TNFα: 40 μM compound plus TNFα 10 ng/mL
[7] = target: T3, human RXRα-LBD (Homo sapiens, UniProt P19793); test: Ligand-binding competition assay with [3H]9-cis-RA; conditions: [3H]-9-cis-RA 7.5 nM
T3 sequence (P19793 223-462): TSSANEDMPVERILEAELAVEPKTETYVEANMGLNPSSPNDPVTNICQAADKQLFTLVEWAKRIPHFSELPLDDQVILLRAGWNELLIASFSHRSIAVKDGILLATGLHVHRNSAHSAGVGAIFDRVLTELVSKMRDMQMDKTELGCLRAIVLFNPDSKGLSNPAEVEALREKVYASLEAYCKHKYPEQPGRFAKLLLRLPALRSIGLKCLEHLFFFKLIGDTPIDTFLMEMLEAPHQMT

[8] = test system: cancer cells; conditions: literature (Weggen 2001; Yamamoto 1999; Zhang 2000); cited from earlier work

SMILES	TNFα-induced AKT activation [3]	inhibition of growth of cancer cells compared to Sulindac [4]	apparent toxic effects such as loss of body weight [5]	reduction of tumor weight [5] [%]	PARP cleavage, combination with TNFα [6]	also measured
CCCOc1cc2c(cc1C(=C1CC1)c1ccc(C(=O)O)cc1)C(C)(C)CCC2(C)C [BI-1003]						inhibition of 9-cis-RA-induced Ga14 reporter activation [1]: inhibited; inhibition of 9-cis-RA-induced TREpal reporter activity [2]: inhibited
CC1=C(CCc2nnn[nH]2)c2ccccc2/C1=C\c1ccc(C(C)C)cc1 [Compound K-8008, (Z)-5-(2-(1-(4-iso-Propylbenzylidene)-2-methyl-1H-inden-3-yl)ethyl)-1H-tetrazole]	suppressed in a dose dependent manner	much more effective	did not show any apparent toxic effects	61.23	could convert TNFα signaling from survival to death	apoptosis in tumor sections, TUNEL staining ([5]; 20 mg/kg): induction of apoptosis; growth of HepG2 tumor ([5]; 20 mg/kg intraperitoneally daily): inhibited the growth of HepG2 tumor in a time dependent manner; AKT activation (p-AKT) in tumors, Western blotting ([5]; three tumors, 20 mg/kg): reduction of AKT activation
CC1=C(CCc2nnn[nH]2)c2cc(F)ccc2/C1=C\c1ccc(C(C)C)cc1 [Compound K-8012, (Z)-5-(2-(5-Fluoro-1-(4-isopropylbenzylidene)-2-methyl-1H-inden-3-yl)ethyl)-1H-tetrazole]	suppressed in a dose dependent manner	much more effective			could convert TNFα signaling from survival to death	
CC1=C(CC(=O)O)c2cc(F)ccc2/C1=C\c1ccc(C(C)C)cc1 [Compound K-80003, reference compound]			did not show any apparent toxic effects	54.84		competition with [3H]9-cis-RA for binding to the LBP of RXRα [7]: competed well
CC1=C(CC(=O)O)c2cc(F)ccc2/C1=C\c1ccc([S+](C)[O-])cc1 (stereo not shown) [Sulindac, reference compound]					significant induction of PARP cleavage	concentration normally used to achieve anti-cancer effects [8]: About 100 μM; PARP cleavage, compound alone ([6]; 40 μM, 1% FBS): slightly induced PARP cleavage
